Where “and” joins values, the source holds several entries; their conditions need not be identical. Equal entries are not always repeated. Where two headings read alike, the source gives them in different places.
Experiments:
SNB-19 = assay: Invasion of solid tumor cells; format: cell-based; conditions: Homo sapiens; SNB-19 (PDGF), glioblastoma
DLBCL cell lines = assay: In vitro DLBCL cell thymidine incorporation assay (panel); format: cell-based; conditions: 5 days, 3H-thymidine incorporation
From the text: Results of 3 independent experiments are shown (mean±SD) in FIG. 2. […] ABC-subtype cells appear more sensitive to the antiproliferative effect than other subtype cells including GCB-DLBCL and PMBL cells.

HCT116 = assay: Solid tumor cell colony formation; format: cell-based; conditions: Homo sapiens, HCT-116
HCT15 [1] = assay: Solid tumor cell colony formation; format: cell-based; conditions: Homo sapiens, HCT-15
U251 = assay: Solid tumor cell colony formation; format: cell-based; conditions: Homo sapiens, U-251
[2] = Pharmacokinetics in monkeys on Day 1 and Day 27; conditions: monkey, in vivo; for AUC(0-t): read-out: AUC0-24
HUVEC = HUVEC tube formation; format: cell-based, human
[3] = system: multiple myeloma (MM) cell lines; assay: Inhibition of MM cell proliferation; format: cell-based
Description: (§1) The ability of compounds to effect the proliferation of MM cell lines was investigated in an in vitro study. Uptake of [^3H]-thymidine by H929 MM cells and 7-AAD uptake in several MM cell lines (H929, U266B1, Anbl-6, KMS-34, OPM-2, DF-15, DF15/R, CAG, MM1.S and LP-1) was measured as an indicator of cell proliferation. Cells were incubated in the presence of compounds for 72 hours ([^3H]-thymidine was included for the last 6 hours of the incubation period) or 5 days followed by 7-AAD uptake to measure and count viable cells.

ZR-75-1 = assay: Solid tumor cell colony formation; format: cell-based; conditions: Homo sapiens
NFκB p65 and p50 = assay: NFκB activity in DLBCL cells (Active Motif transcription factor assay); format: cell-based; conditions: 0.1 μM, 1 μM and 10 μM, 2 days
From the text: NF-κB activity was examined with Active Motif transcription factor assay using nuclear extracts from cells following treatment.

D1 = assay: Activity against lenalidomide resistant cell lines; format: cell-based; conditions: D1, n = 3; read-out: IC50
Description: as §1

Oral pharmacokinetics = format: in vivo, SD rat
HCT15 [4] = assay: Invasion of solid tumor cells; format: cell-based
U87 = assay: Solid tumor cell colony formation; format: cell-based; conditions: Homo sapiens, U-87 MG
T cells = assay: Anti-CD3-stimulated human T cell assay, cytokine production; format: cell-based
Description: T cells were isolated from buffy coat by negative selection using the RosetteSep® T Cell Enrichment Cocktail. The manufacturer's procedures were followed accordingly. All 96-well plates were pre-coated with 3 μg/ml anti-human CD3 antibody in 100 μl 1×PBS for 4 hours at 37° C. The plates were washed three times with RPMI-1640 Complete Media prior to the T cell assay. T cells were then plated in CD3 pre-coated plates at a density of 2.5×10^5 cells/well in 180 μl RPMI-1640 Complete Media. The cells were treated with 20 μl 10× titrated compounds at 10, 1, 0.1, 0.01, 0.001, 0.0001 and 0.00001 μM. Final DMSO concentrations were 0.25%. The plates were incubated for 48 hours at 37° C., 5% CO2. After 48 hours, the supernatants were harvested and tested by a multi-plex cytometric bead array (CBA) assay for the following cytokines/chemokines: IL-2, IL-3, IL-5, IL-10, IL-13, IL-15, IL-17a, GM-CSF, G-SCF, IFN-γ, TNF-α and RANTES. The CBA plates were analyzed on the Luminex IS100 instrument. […] All 96-well plates were pre-coated with 3 μg/mL anti-human CD3 antibody in 100 μL 1×PBS for 4 hours at 37° C. The plates were washed 3 times with RPMI-1640 Complete Media prior to the T cell assay. The T cells were then plated in anti-CD3-pre-coated plates at a density of 2.5×10^5 cells/well in 180 μL RPMI-1640 Complete Media. The cells were treated with 20 μL 10× titrated Celgene compounds at 10, 1, 0.1, 0.01, 0.001, 0.0001, and 0.00001 μM in duplicate. The final DMSO concentrations were 0.25%. The plates were incubated for 48 hours at 37° C., 5% CO2. After 48 hours, the supernatants were harvested and tested by a multiplex cytometric bead array (CBA) assay for the following cytokines/chemokines: IL-2, IL-3, IL-5, IL-10, IL-13, IL-15, IL-17A, GM-CSF, G-CSF, IFN-γ, TNF-α, and RANTES. The CBA plates were analyzed on the Luminex IS100 instrument.

[5] = female, 0.15 mg/kg, Day 1, 0.15 mg/kg, female
[6] = female, 0.15 mg/kg, Day 27, 0.15 mg/kg, female
[7] = female, 1.5 mg/kg, Day 1, 1.5 mg/kg, female
[8] = female, 1.5 mg/kg, Day 27, 1.5 mg/kg, female
[9] = female, 15 mg/kg, Day 1, 15 mg/kg, female
[10] = female, 15 mg/kg, Day 27, 15 mg/kg, female
[11] = male, 0.15 mg/kg, Day 1, 0.15 mg/kg, male
[12] = male, 0.15 mg/kg, Day 27, 0.15 mg/kg, male
[13] = male, 1.5 mg/kg, Day 1, 1.5 mg/kg, male
[14] = male, 1.5 mg/kg, Day 27, 1.5 mg/kg, male
[15] = male, 15 mg/kg, Day 1, 15 mg/kg, male
[16] = male, 15 mg/kg, Day 27, 15 mg/kg, male
[17] = plasma, 30 mg/kg, SD rat, 30 mpk po

Cc1nc2cccc(N)c2c(=O)n1C1CCC(=O)NC1=O (stereo not shown) [compound of Formula I, 3-(5-amino-2-methyl-4-oxo-4H-quinazolin-3-yl)-piperidine-2,6-dione]
IC50 (SNB-19): 160 nM | concentration starting at which proliferation of several lines of DLBCL cells was significantly (p<0.05) inhibited (DLBCL cell lines): 0.1 to 1 µM | inhibition at 10 µM (HCT116): 13% | inhibition at 10 µM (HCT15 [1]): 3% | inhibition at 10 µM (U251): -6% | Cmax [2, 5]: 63 ng/mL | Tmax [2, 5]: 2 h | AUC(0-t) [2, 5]: 450 ng·h/mL | Cmax [2, 6]: 57 ng/mL | Tmax [2, 6]: 2 to 4 h | AUC(0-t) [2, 6]: 450 ng·h/mL | Cmax [2, 7]: 680 ng/mL | Tmax [2, 7]: 2 h | AUC(0-t) [2, 7]: 4100 ng·h/mL | Cmax [2, 8]: 590 ng/mL | Tmax [2, 8]: 0.5 to 2 h | AUC(0-t) [2, 8]: 4200 ng·h/mL | Cmax [2, 9]: 4200 ng/mL | Tmax [2, 9]: 2 to 4 h | AUC(0-t) [2, 9]: 38000 ng·h/mL | Cmax [2, 10]: 7000 ng/mL | Tmax [2, 10]: 4 h | AUC(0-t) [2, 10]: 75000 ng·h/mL | Cmax [2, 11]: 36 ng/mL | Tmax [2, 11]: 2 to 4 h | AUC(0-t) [2, 11]: 430 ng·h/mL | Cmax [2, 12]: 53 ng/mL | Tmax [2, 12]: 4 h | AUC(0-t) [2, 12]: 570 ng·h/mL | Cmax [2, 13]: 510 ng/mL | Tmax [2, 13]: 2 to 4 h | AUC(0-t) [2, 13]: 4600 ng·h/mL | Cmax [2, 14]: 560 ng/mL | Tmax [2, 14]: 2 h | AUC(0-t) [2, 14]: 5700 ng·h/mL | Cmax [2, 15]: 4100 ng/mL | Tmax [2, 15]: 4 h | AUC(0-t) [2, 15]: 51000 ng·h/mL | Cmax [2, 16]: 5800 ng/mL | Tmax [2, 16]: 2 to 4 h | AUC(0-t) [2, 16]: 72000 ng·h/mL | VEGF and bFGF-induced HUVEC tube formation and migration (HUVEC): weakly inhibited | MM cell proliferation in a number of cell lines [3]: inhibit MM cell proliferation | inhibition at 10 µM (ZR-75-1): 90% | NFκB p65 and p50 activity (NFκB p65 and p50): significantly inhibits | IC50 (D1): 309 nM | F (Oral pharmacokinetics; SD rat, 30 mpk po): 53% | AUC (Oral pharmacokinetics; [17]): 25000 ng·h/mL and 87 µM·h | Cmax (Oral pharmacokinetics; [17]): 4800 ng/mL and 17 µM | half-life (Oral pharmacokinetics; plasma, oral, 30 mpk, SD rat): 2.7 h | clearance (Oral pharmacokinetics; plasma, SD rat, read-out: CLp): 11 mL/min/kg | Exposures (AUC(0-t)) versus dose (Oral pharmacokinetics; up to 30 mg/kg, CD-IDS rat): increased in a dose proportional manner | IC50 (HCT15 [4]; Homo sapiens, HCT-15, HCT15 (bFGF), colorectal): 7.2 nM | ability to inhibit invasion of HCT-15 cells (HCT15 [4]; with siCRBN): reduced | inhibition at 10 µM (U87): 2% | IL-5 production increase (T cells; 0.01 μM): 3 fold | IL-5 production increase (T cells; 0.1 μM): 4 fold | production of IL-2, IL-3, IL-5, IL-10, IL-15, GM-CSF, INF-γ, RANTES, and TNF-α (T cells; 0.01 to 10 μM): enhanced | IL-10 production (T cells; 1 and 10 μM): inhibited | EC50 (T cells; Homo sapiens, T-cell, read-out: T cell IL-2 EC50): 12 to 14 nM | IL-10 production enhancement (T cells; low concentrations (≦0.01 μM)): 2 fold
